From ChEMBL document CHEMBL1201862, “PubChem BioAssay data set” (2004) come the findings set out here.

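Grown in 96-well plates, cells were treated for 48 hours with each compound at five concentrations. Insufficient inhibition: endpoint recorded as highest concentration tested. GI50 is the concentration that inhibits growth by half.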 Calls of active or inactive are those of the source. Rule as the data show it: active = GI50 up to about 1.1 µM and inactive = higher.

Some test systems named below: RPMI-8226; NCI/ADR-RES; MCF7; SK-OV-3; A549; IGROV-1; SNB-19; RXF 393; MDA-MB-231; HOP-62; SNB-75; T47D; SN12C; KM12; SK-MEL-5; M14; UACC-257; SF-295; UO-31.
What all share (assay): NCI tumour cell line growth inhibition, 48 h

Turning to `O=C(O)c1ccc(SSc2ccc(C(=O)O)cn2)nc1`, the GI50 in the test on RPMI-8226, with NCI/ADR-RES, with MCF7, with SK-OV-3, with A549 and with IGROV-1 was > 100 µM (inactive) throughout. For the same compound, the GI50 in the test on SNB-19, in the test with RXF 393, in the test on MDA-MB-231, with HOP-62, with SNB-75 and with T47D was > 100 µM (inactive) each time. Also, the GI50 in the test with SN12C, with KM12, with SK-MEL-5, with M14, with UACC-257 and in the test on SF-295 was > 100 µM (inactive) each time.

With `CN(C)/C=N/c1c2ccccc2nc2ccccc12`, the GI50 in the test with RPMI-8226 is 1.79 µM (inactive); in the test on NCI/ADR-RES, 10.6 µM (inactive); in the test with UO-31, 5.86 µM (inactive); in the test with MCF7, 2.54 µM (inactive); in the test with SK-OV-3 it was 5.64 µM (inactive); with A549, 4.61 µM (inactive). Besides, the GI50 with IGROV-1 was 4.23 µM (inactive); in the test on SNB-19 it was 4.25 µM (inactive); with RXF 393 it was 4.34 µM (inactive); in the test on MDA-MB-231, 5.77 µM (inactive); in the test with HOP-62 it was 8.22 µM (inactive); with SNB-75, 3.74 µM (inactive). For the same compound, the GI50 in the test with T47D was 2.65 µM (inactive); in the test on SN12C it was 2.53 µM (inactive); in the test with SK-MEL-5, 2.98 µM (inactive); in the test with M14, 5.37 µM (inactive); in the test with UACC-257, 2.3 µM (inactive); in the test on SF-295, 5.7 µM (inactive).

Regarding `CC1=NN(c2ccccc2)C(=O)/C1=C1\SC(c2ccccc2)(c2ccccc2)c2ccccc21`, the GI50 with RPMI-8226, with NCI/ADR-RES, in the test with UO-31, with MCF7, in the test on SK-OV-3 and in the test with A549 was > 100 µM (inactive) each time. The GI50 in the test on IGROV-1, in the test with SNB-19, in the test on RXF 393, in the test with MDA-MB-231, in the test with HOP-62 and in the test on SNB-75 was > 100 µM (inactive) each time. For the same compound, the GI50 in the test on T47D, in the test with SN12C, in the test on KM12, with SK-MEL-5, with M14 and in the test on UACC-257 was > 100 µM (inactive) each time. Also, the GI50 in the test on SF-295 is > 100 µM (inactive).

As to `C=C1CC(O)C2C(=C)C(=O)OC2C2C(C)C(=O)CC12` (stereo not given), the GI50 was 14 µM (inactive) in the test on RPMI-8226; 18.4 µM (inactive) in the test with NCI/ADR-RES; 14.7 µM (inactive) in the test with UO-31; 9.4 µM (inactive) with MCF7; 33 µM (inactive) in the test on SK-OV-3; 20.3 µM (inactive) in the test with A549. Further, the GI50 is 18.4 µM (inactive) with IGROV-1; 18.8 µM (inactive) with SNB-19; 4.73 µM (inactive) with RXF 393; 20.4 µM (inactive) in the test with MDA-MB-231; 19.8 µM (inactive) with HOP-62; 15.1 µM (inactive) with SNB-75. Besides, the GI50 in the test on T47D was 16.9 µM (inactive); with SN12C, 15.5 µM (inactive); in the test on KM12, 24.7 µM (inactive); with SK-MEL-5, 20.7 µM (inactive); with M14, 11.8 µM (inactive); in the test on UACC-257 it was 12.6 µM (inactive). In addition, the GI50 with SF-295 is 27.6 µM (inactive).

As to `Cc1c(C#N)c2nnn(-c3cccc(Cl)c3)c(=O)n2c1-c1ccccc1`, the GI50 was 0.637 µM (active) with RPMI-8226; 3.1 µM (inactive) with NCI/ADR-RES; 8.97 µM (inactive) in the test with UO-31; 4.02 µM (inactive) in the test with MCF7; 3.08 µM (inactive) in the test on SK-OV-3; 4.5 µM (inactive) in the test on A549. Besides, the GI50 was 2.54 µM (inactive) with IGROV-1; 10.3 µM (inactive) with SNB-19; 1.85 µM (inactive) in the test on RXF 393; 1.57 µM (inactive) in the test with MDA-MB-231; 0.891 µM (active) in the test on HOP-62; 1.76 µM (inactive) with SNB-75. Also, the GI50 in the test with T47D was 4.25 µM (inactive); in the test on SN12C, 3.83 µM (inactive); in the test on KM12 it was 0.895 µM (active); in the test on SK-MEL-5, 3.84 µM (inactive); in the test with M14, 4.17 µM (inactive); with UACC-257, 26.3 µM (inactive). In addition, in the test with SF-295, the GI50 was 1.45 µM (inactive).

Take `C=CC[C@@]1(C)CCCCCCCCC[C@@](C)(CC=C)C1=O`: the GI50 in the test with RPMI-8226 is 28.3 µM (inactive); in the test on NCI/ADR-RES it was 32.7 µM (inactive); in the test with UO-31, 53.6 µM (inactive); with MCF7, 38.8 µM (inactive); in the test with SK-OV-3, 41.1 µM (inactive); in the test with A549, 40 µM (inactive). Moreover, the GI50 in the test with IGROV-1 is 31 µM (inactive); in the test on SNB-19, 20.5 µM (inactive); in the test on RXF 393, 16.9 µM (inactive); with MDA-MB-231, 28.8 µM (inactive); in the test on HOP-62 it was 38.4 µM (inactive); in the test with SNB-75 it was 31.5 µM (inactive). Also, the GI50 in the test on T47D was 21.2 µM (inactive); in the test on SN12C, 29.2 µM (inactive); in the test on KM12, 30.1 µM (inactive); in the test on SK-MEL-5, 16 µM (inactive); in the test on M14 it was 28.6 µM (inactive); with UACC-257 it was 25.2 µM (inactive). Moreover, the GI50 with SF-295 is 21.1 µM (inactive).

Take `O=C1Nc2ccc(Br)cc2/C1=N/c1ccc2c(c1)OCO2`: the GI50 was 18.5 µM (inactive) with RPMI-8226; 27.5 µM (inactive) with NCI/ADR-RES; 19.1 µM (inactive) in the test with UO-31; 16.7 µM (inactive) with MCF7; 31.8 µM (inactive) with SK-OV-3; 46.8 µM (inactive) in the test with A549. Moreover, the GI50 in the test on IGROV-1 is 27.4 µM (inactive); with SNB-19, 74.5 µM (inactive); in the test with RXF 393 it was 20.3 µM (inactive); in the test on MDA-MB-231, 19 µM (inactive); with HOP-62, 20.2 µM (inactive); with SNB-75 it was 31.6 µM (inactive). For the same compound, the GI50 with T47D is 35.9 µM (inactive); in the test on SN12C, 19 µM (inactive); in the test on KM12, 17.6 µM (inactive); in the test with SK-MEL-5 it was 16 µM (inactive); in the test on M14 it was 20.5 µM (inactive); in the test with UACC-257, 18.3 µM (inactive). In the test with SF-295, the GI50 is 24.8 µM (inactive).

As for `CCOC(=O)C1=C(OS(=O)(=O)C(F)(F)F)CCCC1`, the GI50 in the test with RPMI-8226, with NCI/ADR-RES, in the test on UO-31, in the test on MCF7, in the test on SK-OV-3 and with A549 was > 100 µM (inactive) each time. The GI50 in the test on IGROV-1, in the test on SNB-19, in the test on RXF 393, in the test with MDA-MB-231, with HOP-62 and in the test on SNB-75 was > 100 µM (inactive) each time. Besides, the GI50 with T47D is > 100 µM (inactive); with KM12 it was > 100 µM (inactive); with SK-MEL-5 it was 83 µM (inactive); with M14, > 100 µM (inactive); in the test with UACC-257, > 100 µM (inactive); in the test with SF-295, > 100 µM (inactive).

Regarding `O[C@@]1(C#Cc2ccc3c(c2)OCO3)CCC[C@H]1NCc1ccccc1`, the GI50 was 24 µM (inactive) in the test with RPMI-8226; 16.7 µM (inactive) with NCI/ADR-RES; 18.6 µM (inactive) in the test on UO-31; 22.5 µM (inactive) in the test on MCF7; 35.7 µM (inactive) with SK-OV-3; 31.3 µM (inactive) in the test with A549. The GI50 in the test with IGROV-1 was 14.1 µM (inactive); with SNB-19 it was 22.5 µM (inactive); in the test with RXF 393, 24.3 µM (inactive); with MDA-MB-231, 24.9 µM (inactive); with HOP-62, 26.5 µM (inactive); in the test with SNB-75 it was 27.8 µM (inactive). The GI50 in the test on T47D was 18.7 µM (inactive); in the test with KM12, 20 µM (inactive); in the test with SK-MEL-5, 19.4 µM (inactive); in the test on M14, 15.7 µM (inactive); with UACC-257, 24.2 µM (inactive); in the test with SF-295 it was 19.8 µM (inactive).

With `CCCCCC/C=C\CCCCCCCCCC1=C(CN2CCN(C)CC2)C(=O)C=C(OC)C1=O`, the GI50 in the test on RPMI-8226 is 2 µM (inactive); in the test with NCI/ADR-RES it was 3.58 µM (inactive); with UO-31 it was 3.03 µM (inactive); in the test with MCF7 it was 4.3 µM (inactive); with SK-OV-3, 13.2 µM (inactive); in the test with A549 it was 3.83 µM (inactive). The GI50 is 5.93 µM (inactive) with IGROV-1; 11.8 µM (inactive) in the test on SNB-19; 2.29 µM (inactive) in the test on RXF 393; 9.53 µM (inactive) in the test with MDA-MB-231; 15.6 µM (inactive) in the test on HOP-62; 1.62 µM (inactive) in the test with SNB-75. In addition, the GI50 in the test with T47D is 2.28 µM (inactive); in the test on SN12C, 4.37 µM (inactive); in the test with KM12, 6.47 µM (inactive); in the test on SK-MEL-5, 6.75 µM (inactive); in the test on M14, 2.51 µM (inactive); in the test with UACC-257, 13.3 µM (inactive). Besides, the GI50 with SF-295 was 6.3 µM (inactive).

For the compound `O=C1/C(=C/c2ccc(Cl)cc2)N=C(c2ccccc2)N1c1nc2c(Cl)cc(Cl)cc2s1`, the GI50 with RPMI-8226 was 12.5 µM (inactive); with NCI/ADR-RES, 27.2 µM (inactive); in the test on UO-31 it was 25.8 µM (inactive); with MCF7, 23.9 µM (inactive); in the test on SK-OV-3 it was 28.1 µM (inactive); in the test with A549, 24.5 µM (inactive). Further, the GI50 with IGROV-1 is 32.4 µM (inactive); in the test with SNB-19 it was 34.8 µM (inactive); in the test on RXF 393 it was 29.9 µM (inactive); with MDA-MB-231, 30.5 µM (inactive); with HOP-62 it was 22 µM (inactive); in the test on SNB-75 it was 35.7 µM (inactive). Moreover, the GI50 with T47D was 25.1 µM (inactive); with SN12C, 23.1 µM (inactive); in the test on KM12 it was 24.3 µM (inactive); in the test on SK-MEL-5, 18.9 µM (inactive); with M14, 34.9 µM (inactive); with UACC-257, 41.7 µM (inactive). The GI50 in the test on SF-295 is 30.6 µM (inactive).
